The text below walks through data of US20150306110A1, “COMPOSITIONS AND METHODS FOR TREATMENT OF INFLAMMATION AND HYPERKERATOTIC LESIONS” (Novelix Pharmaceuticals, Inc., priority 2008, published 2015).

Values after ≈ are worked out from the molar mass of the structure shown.

The data set can be described thus: Solubility in ethanol, DMSO and ethanol-Tween 80. It counts as physicochemical. Conditions: organic solvent or mixture. The procedure:
After solution in ethanol or DMSO, or chemically similar solvents, NVX-207 or a related compound may be formulated with co-solvents such as Cremophor EL® and/or Tween® 80, in a similar manner described for taxanes. For example, the formulation approach for paclitaxel (TAXOL®; Bristol-Myers Squibb) was to use 50% Cremophor EL® and 50% ethanol. The pharmaceutical formulation of paclitaxel contains 30 mg paclitaxel dissolved in 5 ml of this (1:1, v/v) mixture. These and equivalent formulations allow for the application of NVX-207 in sufficiently high concentrations not only for topical, but also for intralesional and systemic (intravenous infusion) use. Solubility of NVX-207 in ethanol was determined to be at least 300 mg/ml and reached 250 mg/ml in DMSO. […] The solubility of NVX-207 in ethanol-Tween® 80 was evaluated. Two-hundred mg of NVX-207 was dissolved in 1 ml ethanol. […] Then an equal volume of Tween® 80 was added, to achieve a stock solution of 100 mg/ml of NVX-207. The stock solution was clear and yellow. Each stock solution was diluted first 1:1 (50 mg/ml NVX-207), then 1:5 (20 mg/ml NVX-207) and finally 1:10 (10 mg/ml NVX-207) with water. […] NVX-207 therefore has, apart from its higher activity, significant advantages over betulinic acid, that include higher activity, better solubility in pharmaceutically suitable solvents, and better handling.

As to `C=C(C)[C@@H]1CC[C@]2(C(=O)O)CC[C@]3(C)[C@H](CC[C@@H]4[C@@]5(C)CC[C@H](O)C(C)(C)[C@@H]5CC[C@]43C)[C@@H]12` [betulinic acid, reference compound], the solubility by setting is: (Solubility in DMSO) 10 mg/mL (≈ 21.9 mM); (Solubility in ethanol) less than 1 mg/mL.
